Some test systems named below: BT-549; DLD-1; DMS-273; HOP-18; KM-20L2; LXFL 529; SNB-78; XF498; RXF 631.
What all share (assay): NCI anticancer screen, dose series, 48 h

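Method: 48-hour compound exposure of cells in 96-well plates, five concentrations, linear interpolation of endpoints. GI50 is the concentration that inhibits growth by half.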 Activity calls are given as the source filed them. No stated cut-off is given here; in the data, active = GI50 up to about 1.1 µM and inactive = higher.

Turning to `CCNCC(=O)O[C@]1(CC)C(=O)OCc2c1cc1n(c2=O)Cc2cc3ccccc3nc2-1`, the GI50 in the assay with BT-549 was 1.05 µM (active); in the assay on DLD-1, 2.37 µM (inactive); with DMS-273, 0.0119 µM (active); in the assay on HOP-18 it was 0.44 µM (active); in the assay with KM-20L2, 1.14 µM (inactive); in the assay on LXFL 529, 4.73 µM (inactive). Besides, the GI50 in the assay with SNB-78 was 5.11 µM (inactive); with XF498, 0.364 µM (active).

For `O=C1C=C(Nc2ccc(S(=O)(=O)Nc3ncccn3)cc2)c2ccccc2C1=O`, the GI50 in the assay with DLD-1 is 20.7 µM (inactive); in the assay on DMS-273, 27.7 µM (inactive); in the assay on HOP-18, 26.3 µM (inactive); with KM-20L2, 28.7 µM (inactive); in the assay with LXFL 529, 23.2 µM (inactive); in the assay on RXF 631, 22.3 µM (inactive). For the same compound, the GI50 in the assay on SNB-78 is 28.8 µM (inactive).

As for `COc1c(O)c(O)cc2c1-c1ccc(OC)c(=O)cc1C(NC(C)=O)CC2` (stereo unspecified), the GI50 was 2.22 µM (inactive) in the assay with BT-549; 4.71 µM (inactive) in the assay with DLD-1; 3.27 µM (inactive) in the assay on DMS-273; > 100 µM (inactive) in the assay on HOP-18; 2.7 µM (inactive) with KM-20L2; 3.86 µM (inactive) in the assay on LXFL 529. Moreover, the GI50 is 14.9 µM (inactive) in the assay with RXF 631, 3.12 µM (inactive) in the assay with SNB-78 and 5.38 µM (inactive) with XF498.

Regarding `O=C(Nc1cccs1)c1c(O)[nH]c(=S)[nH]c1=O`, the GI50 in the assay on DLD-1, with HOP-18, with KM-20L2 and with RXF 631 was > 100 µM (inactive) throughout.

As for `CCCN(CCCC(NC(C)=O)C(=O)NCc1ccccc1)C(=O)NCCCl` (stereo unspecified), the GI50 with DLD-1, in the assay with DMS-273, with HOP-18, with KM-20L2, in the assay on LXFL 529 and in the assay with RXF 631 was > 100 µM (inactive) each time. In addition, in the assay on XF498, the GI50 is > 100 µM (inactive).

Regarding `O=C1NC(=S)NC(=O)C1=CC1CC1`, the GI50 with DLD-1, in the assay with DMS-273, in the assay on HOP-18, in the assay with KM-20L2, in the assay with LXFL 529 and in the assay on SNB-78 was > 100 µM (inactive) each time. In addition, the GI50 with XF498 is > 100 µM (inactive).

Regarding `NC(=O)N/N=C/C(/C=N/NC(N)=O)[N+](=O)[O-]`, the GI50 in the assay on DLD-1, in the assay on KM-20L2, in the assay with LXFL 529, in the assay with RXF 631 and with XF498 was > 100 µM (inactive) each time.

Regarding `O=C1/C(=C/c2cccc([N+](=O)[O-])c2)COc2ccc(Br)cc21`, the GI50 is > 100 µM (inactive) with DLD-1; 45.2 µM (inactive) with DMS-273; > 100 µM (inactive) with HOP-18; > 100 µM (inactive) with KM-20L2; > 100 µM (inactive) with LXFL 529; > 100 µM (inactive) with SNB-78. For the same compound, the GI50 in the assay with XF498 is > 100 µM (inactive).

Regarding `Cc1ccc(C(=O)C(C)N)cc1C` (stereo unspecified), the GI50 is > 100 µM (inactive) in the assay with DLD-1; > 100 µM (inactive) in the assay on KM-20L2; > 100 µM (inactive) in the assay with LXFL 529; > 100 µM (inactive) with RXF 631; 41.5 µM (inactive) in the assay on XF498.

For the compound `CCCNC1=C(C(=O)OCC)C(=O)CO1`, the GI50 in the assay with DLD-1, in the assay on DMS-273, with KM-20L2, with LXFL 529, in the assay on RXF 631 and in the assay with SNB-78 was > 100 µM (inactive) each time. Further, the GI50 with XF498 was > 100 µM (inactive).

As to `Cc1ccccc1/N=N/C(C(=O)c1ccccc1)C(=O)c1ccccc1`, the GI50 in the assay with DLD-1 was 30.8 µM (inactive); in the assay on DMS-273 it was 18.3 µM (inactive); in the assay with KM-20L2 it was 27.7 µM (inactive); in the assay with LXFL 529, 13.1 µM (inactive); with RXF 631, 34.9 µM (inactive); in the assay on XF498, 19.5 µM (inactive).

On to `CC(=O)Oc1cc2c(cc1OC(C)=O)OCC(c1ccc(C)cc1)C2` (stereo unspecified), for which the GI50 was 21.8 µM (inactive) in the assay on DLD-1; 19.4 µM (inactive) in the assay on DMS-273; 26.9 µM (inactive) in the assay on HOP-18; 25.1 µM (inactive) in the assay with KM-20L2; 21.6 µM (inactive) with SNB-78; 15.4 µM (inactive) in the assay on XF498.

In the case of `N=C(N)SCc1cccc([N+](=O)[O-])c1`, the GI50 was 27.2 µM (inactive) with DLD-1; 30.2 µM (inactive) with DMS-273; 26.9 µM (inactive) in the assay on HOP-18; 31.7 µM (inactive) in the assay on KM-20L2; 35.6 µM (inactive) with SNB-78; 25.1 µM (inactive) in the assay on XF498.

As to `CCOc1ccc(/N=N/c2ccc3oc(=O)c(/C(C)=N\NC(=O)CC(=O)Nc4ccc(Cl)cc4)cc3c2)cc1`, the GI50 was 12.6 µM (inactive) in the assay with DLD-1; 16.3 µM (inactive) in the assay with DMS-273; > 100 µM (inactive) in the assay on KM-20L2; 10.8 µM (inactive) in the assay with LXFL 529; 20 µM (inactive) with RXF 631; 27.9 µM (inactive) in the assay on SNB-78. Besides, the GI50 in the assay on XF498 is 2.07 µM (inactive).

The record behind these values is ChEMBL document CHEMBL1201862, “PubChem BioAssay data set” (2004).
